In patent US11542295B2, “Use of 20-hydroxyecdysone and the derivatives thereof in the treatment of myopathies” (BIOPHYTIS, priority 2017, dated 2023):

How the values were obtained:
[1] = test system: BMP4 (bone morphogenetic protein 4); assay: Heart mRNA expression of BMP4 (semi-quantitative PCR); format: in vivo, mouse; conditions: mdx mice, 50 mg/kg*day, two months; p=0.0529
Experimental: Twelve-week-old C57BL10 gene pool (wild mice referred to as “C57” in the figures) and C57BL10 mdx (mouse model of Duchenne muscular dystrophy, referred to as “mdx” in the figures) male mice, produced at Charles Rivers, were used. Two groups of mdx were chronically exposed per os either to BIO101 (number of mice n=9) or to BIO103 (number of mice n=9) at a dose of 50 mg/kg*day. A group of C57 mice (number of mice n=5) and a group of mdx mice (number of mice n=15) received the vehicle, i.e. no treatment. The animals of all of the groups were tested for their functional capacity (exertion tolerance test) after two months of treatment. […]
An assessment of markers of fibrosis and cardiac hypertrophy is carried out at the end of the protocol, i.e. after two months of treatment. […] The extract RNA is quantified by spectrophotometry then the quality thereof is verified and validated with the Experion RNA StdSens Analysis Kit (Bio-Rad). […] Finally, semi-quantitative PCR analysis was carried out using SYBR® Green (Roche), a DNA intercalating agent and a LightCycler® 480 Real Time PCR (Roche) apparatus on 384-well plates. The molecular markers measured are as follows: • CTGF and collagen I: connective tissue growth factor (CTGF) is associated with healing and with many pathological fibrotic processes including DMD (Brigstock 2010; Song Y. 2017). […]

[2] = test system: Human DMD skeletal muscle cells (KM571DMD10FL Cl1); assay: Differentiation of human DMD myoblasts into myotubes; format: cell-based; conditions: 10 μM, vs untreated control cells
Experimental: Various parameters have been measured to assess myotube differentiation. Human DMD skeletal muscle cells (KM571DMD10FL Cl1) were differentiated for 3 days then incubated with or without BIO101 at 10 μM. The fusion index and the number of nuclei per myotube were validated as relevant and sensitive indicators of myotube differentiation.
The fusion index illustrated in FIG. 7A represents the percentage of differentiated cell nuclei with respect to the cell total.
The number of nuclei per myotube is illustrated in FIG. 7B, 300 myotubes were counted.
The myotube diameter is illustrated in FIG. 7C, 150 myotubes were measured per condition.
The results in FIGS. 7A,7B and 7C show the mean data measured during three independent experiments, plus or minus the standard error (SEM).

AKT = AKT phosphorylation in human DMD myocytes (Western Blot); format: cell-based; conditions: 10 μM, 10 minutes to 24 hours, vs untreated control
Experimental: (§1) Human DMD skeletal muscle cells (KM571DMD1OFL Cl1) were differentiated for 5 days then optionally incubated with BIO101 at 10 μM for periods of between 10 minutes and 24 hours.
(§2) A densitometric analysis of results of at least 6 independent Western Blot experiments described the effects of BIO101 on the phosphorylation of AKT (FIG. 8A) and ERK1/2 (FIG. 8B) is shown, *p<0.05 versus the untreated control.

ERK1/2 = ERK1/2 phosphorylation in human DMD myocytes (Western Blot); format: cell-based; conditions: 10 μM, 10 minutes to 24 hours, vs untreated control
Experimental: as §1, §2

[3] = test system: Human DMD skeletal muscle cells (KM571DMD1OFL Cl1); assay: Cellular respiration (oxygen consumption rate, Seahorse XF Analyzer); format: cell-based; conditions: two days of treatment
Experimental: Human DMD skeletal muscle cells (KM571DMD1OFL Cl1) were differentiated for 4 days, then incubated in the presence or absence of BIO101 (1 or 5 μM) for 2 days. The oxygen consumption rate, also known as OCR, which reflects the mitochondrial respiration of the cells was measured using a Seahorse XF Analyzer (registered trademark, Agilent).
The basal respiration is measured directly whereas the maximum respiration is measured after adding oligomycin followed by FCCP (FIG. 9A and FIG. 9B). The results are referenced to the OCR of the untreated cells and are shown in the form of means plus or minus the standard error (SEM).

[4] = test system: tibialis anterior muscle of C57BL10 mdx mice; assay: Histological study of tibialis anterior muscle stained with Sirius Red (fibrotic area); format: in vivo, mouse; conditions: 50 mg/kg*day, two months, p=0.0709
Experimental: Twelve-week-old C57BL10 gene pool (wild mice referred to as “C57” in the figures) and C57BL10 mdx (mouse model of Duchenne muscular dystrophy, referred to as “mdx” in the figures) male mice, produced at Charles Rivers, were used. Two groups of mdx were chronically exposed per os either to BIO101 (number of mice n=9) or to BIO103 (number of mice n=9) at a dose of 50 mg/kg*day. A group of C57 mice (number of mice n=5) and a group of mdx mice (number of mice n=15) received the vehicle, i.e. no treatment. The animals of all of the groups were tested for their functional capacity (exertion tolerance test) after two months of treatment. The exertion tolerance test consists of measuring the maximum distance travelled (in-toto activity; FIGS. 1A and 1B). Furthermore, measurements of the maximum absolute isometric strength of the tibialis anterior muscle (in-situ activity; FIGS. 2A and 2B) were made after two months of treatment.
An assessment of muscle fibrosis by histological study is carried out on the tibialis anterior muscle (abbreviated as TA). Histological sections (7 μm) are produced and stained either with haematoxylin eosin (HE) or with Sirius Red (SR).
An anatomopathological analysis of the sections of tibialis anterior muscle stained with SR makes it possible to quantify the fibrotic area. […]

Structure (SMILES) | genic expression of BMP4 in heart compared to control mdx animals [1] | increase in the myotube diameter ([2]; p<0.001) | increase of the fusion index ([2]; p<0.001) | increase in the number of nuclei per myotube ([2]; p<0.01) | p-AKT (phosphorylation of AKT) (AKT) | p-ERK1/2 (phosphorylation of ERK1/2) (ERK1/2) | basal respiration increase (OCR) vs untreated cells ([3]; 1 μM, p<0.01) | maximum respiration increase (OCR after oligomycin and FCCP) vs untreated cells ([3]; 1 μM, p<0.05) | maximum respiration increase (OCR after oligomycin and FCCP) vs untreated cells ([3]; 5 μM, p =0.13) | basal respiration increase (OCR) vs untreated cells ([3]; 5 μM, p<0.001) | onset of fibrosis (percentage area corresponding to fibrosis) compared to the control mdx group [4]
CC(C)(O)CC[C@@H](O)[C@](C)(O)[C@H]1CC[C@@]2(O)C3=CC(=O)[C@@H]4C[C@@H](O)[C@@H](O)C[C@]4(C)[C@H]3CC[C@]12C [BIO101, 20-hydroxyecdysone] | reduces | 21% | +7% | 34% | significant increase | significant increase | 20% | 51% | 22% | 21% | 
CCSCC(=O)[C@H]1CC[C@@]2(O)C3=CC(=O)[C@@H]4C[C@@H](O)[C@@H](O)C[C@]4(C)C3CC[C@]12C (stereo partly drawn) [BIO103, (2S,3R,5R,10R,13R,14S,17S)-17-(2-ethylsulfanylacetyl)-2,3,14-trihydroxy-10,13-dimethyl-2,3,4,5,9,11,12,15,16,17-decahydro-1H-cyclopenta[a]phenanthren-6-one] |  |  |  |  |  |  |  |  |  |  | clearly tends to prevent
